Measurements: the METLIN SMRT retention time set (Domingo-Almenara et al. 2019)

Assay: gradient 5% acetonitrile 3 min, to 50% in 2 min, to 85% in 15 min, held 3 min, 100 µL/min
Details: column: Zorbax Extend-C18 2.1 x 50 mm; eluents: water / acetonitrile, 0.1% formic acid
In short: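 Over 3 months, pure standards in mixtures of ~100 molecules were run by HPLC coupled to a quadrupole time-of-flight mass spectrometer in positive and negative ionization mode. The column was a Zorbax Extend-C18 (2.1 × 50 mm, 1.8 μm) at 100 μL/min, eluted with water and acetonitrile each holding 0.1% formic acid, with 40 μL dead and 900 μL dwell volumes. Retention time was determined from adduct peaks chosen by software and checked manually.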

RP-LC retention time [s] | Structure (SMILES)
896 | COc1ccc(NC(=O)C2CCN(S(=O)(=O)c3c(C)nn(-c4ccccc4)c3C)CC2)cc1
1180 | O=S(=O)(c1ccc(Br)s1)N1CCCC1c1nc(-c2ccc(F)cc2)no1 (stereo not given)
954 | CCn1c(=O)c2c(nc3n2CC(C)CN3c2ccc(Br)cc2)n(C)c1=O (stereo not given)
1020 | Cc1cc(NC(=O)c2cn(-c3ccc(C#N)cc3)cn2)ccc1Br
782 | O=C(NCCn1c(=O)n(Cc2ccc(F)cc2)c2cccnc21)C1CCCC1
654 | Cc1nc(-c2cccnc2)nc2c1CC(=O)N2C(C)C
536 | Cn1cnc(S(=O)(=O)N2CCN(c3ccccn3)CC2)c1
1120 | O=S(=O)(Nc1ccc(F)cc1)c1cccc(-c2nc(-c3ccccc3)no2)c1
934 | COc1ccc(-c2nc(NC3CCCCCC3)c3ccccc3n2)cc1
574 | CCN1CCN(c2ccc(N3CCCC(C(=O)N4CCN(c5ccccn5)CC4)C3)nn2)CC1 (stereo not given)
658 | COc1ccc2[nH]c3c(C)c4ccncc4c(C)c3c2c1
688 | CNC(=O)C1CCCN(c2nc3ncn(CC(=O)Nc4ccc5c(c4)CCC5)c(=O)c3s2)C1 (stereo not given)
544 | CCS(=O)(=O)N1C[C@@H](COC)[C@H](c2ccncc2)C1
707 | CCCNC(=O)N(C1CCOCC1)C1CCN(C(=O)c2ccc3ccccc3n2)CC1
1010 | Cc1ccc(NC(=O)CN2C(=O)CCc3cc(S(=O)(=O)N4CCCCC4C)ccc32)cc1F (stereo not given)
630 | O=C(c1ccsc1)N1CCC(c2nncn2-c2ccccc2)CC1
1130 | Cc1nc(-n2cccc2)sc1C(=O)NCc1ccc(C(C)C)cc1
965 | Cc1nc(-c2ccc3c(c2)CCN3C(=O)Cc2cccs2)cs1
574 | CCn1cc(CCNC(=O)NCC(=O)OC)c2cccnc21
765 | CCN1CCCn2cc(S(=O)(=O)Nc3ccc(Cl)cc3)cc2C1=O
761 | CCOCC(=O)N1CCCN(C2=NS(=O)(=O)C(c3ccc(Cl)cc3)=C2C)CC1
860 | COc1cccc(-c2cc3c(=O)n(CC(O)c4ccccc4)ccn3n2)c1 (stereo not given)
860 | Cc1nn(Cc2nc(-c3ccc(NC(=O)C4CCCC4)cc3)oc2C)c(C)c1C

RP-LC retention time [s] | Structure (SMILES)
719 | O=C(NCc1ccc2c(c1)OCO2)C1CCN(C(=O)c2cccc(F)c2)CC1
809 | CCc1c(C(=O)O)nnn1-c1ccc(C)c(Cl)c1
816 | COc1ccc(C2(C(=O)Nc3cc(-c4cccnc4)no3)CC2)cc1
693 | Cc1cc(C)cc(-n2c(CN3CCN(C(=O)Nc4ccc5c(c4)OCCO5)CC3)nc3cccnc32)c1
1090 | Cc1ccc(-c2ccc(=O)n(Cc3nc(-c4ccc(F)cc4)no3)n2)cc1
933 | N#Cc1cccc(C(=O)N2CCCn3nc(-c4ccc(Cl)cc4)cc3C2)c1
736 | O=C(CN1C(=O)COc2ccc(C(=O)N3CCN(c4ccc(F)cc4)CC3)cc21)N1CCCC1
615 | O=C(Cn1ncc2c(N3CCN(c4ccccn4)CC3)ncnc21)Nc1cc(F)ccc1F
652 | COc1ccc(-c2cn3c(CC(=O)NCc4cc(OC)c(OC)c(OC)c4)csc3n2)cc1OC
980 | O=S(=O)(NCCc1noc(-c2ccccc2)n1)c1ccc(Cl)cc1
639 | O=C(Cn1ccnc1-c1ccnc(N2CCOCC2)c1)N1CCN(c2ccccc2)CC1
926 | Cc1nc(-c2csc(S(=O)(=O)N3CCC(C(=O)NCc4ccc(Cl)cc4)CC3)c2)no1
624 | COCCN(C)C(=O)c1cn(C2CN(C(=O)NCC(C)C)C2)nn1
782 | Cc1ccc(-c2nc3nc(C)cc(NC(C)C)n3n2)cc1
760 | Cc1ccc(C(=O)N2CCCC2c2c(C)noc2C)cc1 (stereo not given)
807 | COc1ccccc1N1CCN(C(=O)C2CCN(c3nnc(-c4ccccc4)o3)CC2)CC1
828 | CC(Cc1ccco1)NC(=O)c1cc2n(n1)CCCN(Cc1ccccc1)C2=O (stereo not given)
692 | CCNC(=O)C1CCCN(c2nc3ncn(CC(=O)NCCC4=CCCCC4)c(=O)c3s2)C1 (stereo not given)
870 | CCOC(=O)c1cccc(Nc2nc(C(=O)OCC)nc3ccccc23)c1
610 | C[C@H]([C@H](C)N1CC(=O)NC(=O)C1)N1CC(=O)NC(=O)C1
994 | CCc1nc(-c2csc(S(=O)(=O)N3CCC(C(=O)NCc4ccc(Cl)cc4)CC3)c2)no1
757 | CCCN(CCc1cccs1)C1CCc2c(O)cccc2C1 (stereo not given)
1260 | CCCCOc1ccc(Nc2cc(Cl)ccc2C(=O)O)cn1

RP-LC retention time [s] | Structure (SMILES)
575 | NC(=O)[C@@H]1C[C@@H](O)CN1C1CCN(C(=O)CC2=CCCCC2)CC1
597 | CCN1CCN(c2cc(C)c3cc(NC(=O)COc4ccc(OC)cc4)ccc3n2)CC1
927 | Cc1cc(S(=O)(=O)NCC2CCN(C(=O)NC(C)(C)C)CC2)c(Cl)cc1Cl
973 | COCCc1noc(C2Cc3ccccc3N2C(=O)NCc2ccc(C)cc2)n1 (stereo not given)
719 | COCCC1CCN(C(=O)c2nccc3ccccc23)CC1
744 | O=C(NCCCc1ccccc1)C1CCc2nc(N3CCOCC3)ncc2C1 (stereo not given)
715 | CCOC(=O)c1c(C)[nH]c(CCC(=O)NCCc2c[nH]c3ccccc23)c1C
923 | COc1ccc(-c2nc(N3CCCCC3)ncc2C(=O)O)cc1
725 | CCc1ccccc1NC(=O)N1CC(n2cc(COCC3CC3)nn2)C1
601 | CN1CCN(c2ccc(NC(=O)C(C)(C)C)c(C(=O)O)c2)CC1
585 | Cc1cc(N2CCN(C)CC2)nc(N2CCN(C(=O)c3ccc(-c4ccccc4)cc3)CC2)n1
1010 | Cc1noc(C)c1-c1ccc(S(=O)(=O)NC2CCCCCC2)cc1
659 | COc1cc(NC(=O)Cn2nc3n(c2=O)CCCCC3)cc(OC)c1OC
577 | Cc1nnc(C2CC3(CCN(CCCO)CC3)CN2Cc2ccccc2)o1 (stereo not given)
654 | CCn1cnc2cc(-c3noc(CNC(=O)c4ccc(C)cc4)n3)ccc21
617 | Cc1nn(CC(=O)NCC2CCN(Cc3ccc(Cl)cc3)CC2)c(=O)c2noc(C)c12
986 | Cc1ccsc1C(=O)Nc1cccn2nc(C(C)C)nc12
1110 | c1ccc2c(CCNc3ccc(Nc4ccncc4)cc3)c[nH]c2c1
606 | CC(C)c1cc(N2CCN(C(=O)c3ccc(N(C)C)cc3)CC2)nc2nncn12
1190 | Cc1cccc(-c2noc(Cc3nnc(-c4ccc(C)c(C)c4)o3)n2)c1
849 | COc1ccc(N2CC(c3noc(-c4cc(F)ccc4F)n3)CC2=O)cc1 (stereo not given)
637 | Cn1c(=O)c(-c2noc(C(=O)N3CCN(c4ccccn4)CC3)n2)nn(-c2ccccc2)c1=O
797 | CC1CCN(S(=O)(=O)c2ccc(-c3nnc(C(=O)N4CCOCC4)o3)cc2)CC1

RP-LC retention time [s] | Structure (SMILES)
632 | O=C1NCCCCCCN(C(=O)c2cnccn2)[C@H]2CCC[C@@H]12
723 | COCc1c(C(=O)O)nnn1-c1ccc(F)c(F)c1
815 | Cc1cccc(-c2nc3nc(C)cc(N(CCO)Cc4ccccc4)n3n2)c1
956 | COc1ccccc1-c1noc(Cn2c(=O)n(Cc3ccc4c(c3)OCO4)c(=O)c3sccc32)n1
686 | CCCCC(=O)N(C)CCc1noc(-c2ccc(C(=O)N3CCOCC3)cc2)n1
646 | COc1ccc(-c2csc(NC(=O)CCc3c(C)[nH]c(=O)[nH]c3=O)n2)cc1
839 | CN1C(=O)c2cc(C(=O)NCc3ccccc3F)nn2CC1(C)C(=O)NC1CCCCCC1 (stereo not given)
627 | O=C(Nc1ccc(Br)cc1F)N1CCN(Cc2ccc3nccnc3c2)CC1
780 | O=C(NCc1ccco1)c1ccc(Cn2nc(N3CCN(c4ccccc4)CC3)ccc2=O)o1
929 | COc1ccc(C2C(C(=O)Nc3cc(OC)ccc3OC)c3ccccc3C(=O)N2C)cc1 (stereo not given)
707 | COC(=O)c1c(C)[nH]c(C(=O)N2CCCC(C(=O)N3CCN(c4ccc(OC)cc4)CC3)C2)c1C (stereo not given)
799 | Cc1ccc(N2CC(c3noc(-c4ccc(C)nc4)n3)CC2=O)cc1 (stereo not given)
649 | Cc1nc(C(=O)N2CCCCCC2c2nnc(C)o2)co1 (stereo not given)
651 | COC(=O)CNC(=O)N1CCN(Cc2ccc(C)cc2)c2ncccc21
719 | CSc1ccc(-c2nc3cnccn3c2Nc2ccc(C(=O)O)cc2)cc1
1100 | Cc1ccc(OCC(=O)Nc2nnc(SCc3nnc(-c4ccccc4C)o3)s2)c(C)c1
614 | CCN1CCN(c2nc3c(s2)CN(C(=O)CCC(C)C)CC3)CC1
666 | Cc1ccsc1C(=O)Nc1ccc(-c2nnc3n2CCCC3)cc1
610 | COc1ccc(Nc2nccc(NCCO)n2)cc1
692 | CS(=O)(=O)N(C1CCOCC1)C1CN(C(=O)COc2ccccc2)C1

Structure (SMILES) | RP-LC retention time [s]
CCN1CCCc2cc(C(=O)N3CCC4(CC3)OCCO4)sc21 | 603
